Results on two compounds are retold here after patent US11963519B2 (priority 2022, dated 2024).

Where “and” joins values, the source holds several entries; their conditions need not be identical. Identical values can stand only once.

Test [1] relates to CD-1 mice. It counts as in vivo, mouse.
The subject of test [2] is CD-1 mice. Type of test: in vivo, mouse. The source holds these as a separate data set.
Test [3] deals with CD-1 mice. The following applies: mouse, in vivo.

Take `CN(C)CCCN1c2ccccc2CCc2ccccc21` [IMI, imipramine]: in the test on CD-1 mice [1] (mouse, in vivo), the “exploratory behaviors in open-field test of BCG+PTX model mice” value is reported as “increased”, the “exploratory behaviors in open-field test of depression model mice” value is “decreased”, the “number of times of zone crossing in open-field test of BCG+PTX model mice” value is reported as “increased” and the “number of times of zone crossing in open-field test of depression model mice” value is on record as “decreased”. For the same compound, in the test with CD-1 mice [1] (mouse, in vivo), the “total movement distance in open-field test of BCG+PTX model mice” value is reported as “increased” and the “total movement distance in open-field test of depression model mice” value is “decreased”. For the same compound, the “motionlessness time (behavioral despair state) in TST of BCG+PTX model mice” value in the test on CD-1 mice [2] (mouse, in vivo) is listed as “improved”. Moreover, the “sucrose preference rate in depression model mice” value in the test on CD-1 mice [3] was “significantly reduce”.

In the case of Bacille Calmette-Guerin [BCG], in the test with CD-1 mice [1] (n=12), the “Open-field test Number of times of exploratory behaviors” value was 23.83 ± 12.41 and 38.92 ± 15.96; the “Open-field test Number of times of zone crossing” value was 104.91 ± 35.1528 and 138.73 ± 23.44; the “Open-field test Total movement distance” value is 582.74 ± 211.42 cm and 734.20 ± 349.87 cm. Besides, the “TST Motionlessness time” value in the test on CD-1 mice [2] (n=12) is 122.60 ± 34.11 s and 98.84 ± 21.35 s.
